{"source": "patent US8193235B2", "about": "“Compositions and methods for establishing and maintaining stem cells in an undifferentiated state” (University of Kansas, priority 2009, dated 2012)", "key": {"Ezh2−/− ES cells": {"system": "Ezh2−/− ES cells", "test": "Ezh2−/− ES cells on collagen-IV without LIF", "format": "cell-based, mouse", "details": "absence of LIF", "description": "Ezh2^−/− ES Cells. Ezh2^−/− cells, passage 6, were maintained on irradiated MEF feeders in standard ES medium (DMEM; Dulbecco's modified Eagle's medium) supplemented with 15% heat-inactivated fetal calf serum, 0.1 mM 2-mercaptoethanol, 2 mM L-glutamine, 0.1 mM non-essential amino acid, 1% of nucleoside mix (100× stock, Sigma), 1000 U/mi LIF and 50 U/ml Penicillin/Streptomycin. For experiments involving Gö6983, Ezh2^−/− cells were passed once without feeders and used for subsequent analysis. For experiments on collagen IV, ˜3×10^4 Ezh2^−/− cells were plated in each well of a six-well tissue culture plate in the presence or absence of LIF and Gö6983."}, "DCIS.com cells": {"system": "DCIS.com cells", "test": "Mamosphere formation of breast cancer cells", "format": "cell-based", "description": "In addition to ES and iPS cells, it was determined whether blockade of PKC signaling facilitated the propagation of cancer stem cells. To that end, mamosphere formation of a breast cancer cell type known as DCIS.com was analyzed. Mamospheres are specialized structures formed by breast cancer cell types and are indicative of presence and propagation of breast cancer stem cells. […] Therefore, blockade of PKC signaling can be used to efficiently propagate and expand cancer stem cells."}, "NF-κB target genes": {"system": "NF-κB target genes", "test": "RT-PCR analysis of NF-κB target gene expression", "format": "cell-based, mouse", "description": "Quantitative RT-PCR Analysis. RNA was extracted from different cell samples with TRIZOL reagent (Invitrogen). cDNA was prepared by annealing RNA (1 μg) with 250 ng of a 5:1 mixture of random and oligo(dT) primers heated at 68° C. for 10 minutes. This was followed by incubation with Moloney murine leukemia virus reverse transcriptase (50 units) (Invitrogen, Carlsbad, Calif.) combined with 10 mM DTT, RNasin (PROMEGA, Madison, Wis.), and 0.5 mM dNTPs at 42° C. for 1 hour. Reactions were diluted to a final volume of 100 μl and heat inactivated at 97° C. for 5 minutes. Twenty μl PCR reactions contained 2 μl cDNA, 10 μl SYBR Green Master Mix (Applied Biosystems, Foster City, Calif.) and corresponding primer sets. Relative expression levels were determined from a standard curve of serial dilutions of proliferating ES cell cDNA samples and were normalized to the expression of glyceraldehyde-3-phosphate dehydrogenase (GAPDH). At least three independent experiments were done for each set of data."}, "c-Myc": {"system": "c-Myc", "test": "GSK-3β-mediated phosphorylation of c-Myc at T58", "format": "cell-based, mouse", "details": "Gö6983 alone"}, "RelA and LGL1/2": {"system": "RelA and LGL1/2", "test": "Phosphorylation of PKC ζ target proteins in mESCs", "format": "cell-based, mouse", "description": "Western Blot Analysis. Whole cell lysates were prepared in SDS-gel loading buffer and resolved by 10% PAGE. The antibodies used for this study included β-actin Clone AC-15 from Sigma; p-STAT3 (Tyr705), p-p44/42 MAPK (tyr202/tyr204), p44/42 MAPK, GSK3β, Phospho Akt (Ser473), Akt, p-NFκβ p65 (Ser536), c-Myc, p-c-Myc (Thr58/Ser62), p-p90RSK (Thr359/Ser363), RSK1, Suz12 (D39F6), and Ezh2 (AC22) from Cell Signaling Technology; STAT3 (C-20), Oct-4 (C-10), Nanog (M-149), PKC α (C-20), PKC βI (C-16), PKC βII (C-18), PKC γ (C-19), PKC δ (C-20), PKC ζ (c-20), p-PKC ζ (Thr 410)-R, p-NFκβ p65 (ser311), and RelA (p65) from Santa Cruz Biotechnology; p-LGL1/LGL2 (S650/S654), SSEA4and H3K4Me3 from Abcam; LGL2 (M06), clone 4G2 from Abnova; β-Catenin from BD Transduction Laboratories, and H3K27Me3 and H3K9Me3 from Millipore."}, "Stat3−/− ES cells": {"system": "Stat3−/− ES cells", "test": "Stat3−/− ES cells in serum-free N2B27 medium", "format": "cell-based, mouse", "description": "Stat3^−/− ES Cells. Passage 12 Stat3^−/− ES cells were maintained on N2B27 medium with 1 μM PD0325901 and 3 μM CHIR99021 and passaged every 3-4 days. For studies involving Gö6983, around 1-2×10^4 cells were plated on 6-well plates having N2B27 medium with or without 5 μM Gö6983 and analyzed for the expression of pluripotency markers."}}}
{"molecule": "COc1ccc2c(c1)c(C1=C(c3c[nH]c4ccccc34)C(=O)NC1=O)cn2CCCN(C)C", "note": "[Gö6983, 3-[1-[3-(dimethylamino)propyl]5-methoxy-1H-indol-3-yl]-4-(1H-indol-3-yl)-1H-pyrrole-2,5-dione]", "values": [{"measurement": "collagen-IV-induced Ezh2−/− cell differentiation", "setting": "Ezh2−/− ES cells", "result": "completely inhibited"}, {"measurement": "marker expression in Ezh2−/− cells on collagen-IV", "setting": "Ezh2−/− ES cells", "result": "maintained expression of pluripotency markers without the induction of developmental regulator genes"}, {"measurement": "mamosphere formation", "setting": "DCIS.com cells", "result": "efficiently generated mamospheres"}, {"measurement": "activation of NF-κB target gene transcription", "setting": "NF-κB target genes; E14 cells, absence of LIF, FIG. 3A", "result": "inhibited their activation"}, {"measurement": "activation of NF-κB target genes, RelA phosphorylation and reporter Luciferase", "setting": "NF-κB target genes; PKCζkd cells cultured on collagen IV", "result": "inhibited the activation"}, {"measurement": "GSK-3β-mediated phosphorylation of c-Myc at T58 residue", "setting": "c-Myc", "result": "did not inhibit"}, {"measurement": "phosphorylation of RelA and LGL1/2", "setting": "RelA and LGL1/2", "result": "impaired"}, {"measurement": "differentiation of Stat3−/− ES cells", "setting": "Stat3−/− ES cells", "result": "efficiently prevented differentiation"}]}
